One assay has as its target collagenase. Briefly: Collagenase inhibition, modified spectrophotometric method. It counts as biochemical. How it is done: (§1) All plant samples were macerated using 80% ethanol at room temperature for 5 days. Subsequently, filter paper was used to filter the samples, and the remaining filtrate was evaporated to dryness in a rotary evaporator (Büchi, Flawil, Switzerland). The extracts were weighed and dissolved in dimethyl sulfoxide (DMSO) to reach a concentration of 2 mg/mL, which was used in the in vitro experiments.
The enzyme inhibition assays conducted in this study included elastase, collagenase, hyaluronidase, XO, and prolyl POP inhibition and were performed using an ELISA microplate reader (Spectramax i3x microplate reader with Softmax® Pro Software for Windows 10; Molecular Devices, San Jose, USA). Elastase inhibition by the extracts was assessed using a modified spectrophotometric method based on Kraunsoe et al. (1996) and Lee et al. (2009). Collagenase inhibition was evaluated using the modified spectrophotometric method by Barrantes and Guinea 2003 [67], which was originally developed by Wart and Steinbrink (1981). The LOX inhibitory activities of the extracts were determined following the method of Chung et al. (2009), with minor modifications. XO inhibition was measured spectrophotometrically by monitoring the absorbance at 295 nm from uric acid formed during an enzymatic reaction. […]

The nature of assay [1]: Nitric oxide radical-scavenging activity. Here is the method: as §1
The determination of the superoxide radical (O2^•−)-scavenging effect was conducted using the method described by Duh et al.. To assess the nitric oxide (NO)-scavenging effect, the method of Sreejayan and Rao was utilised with some modifications.

In a further assay the target is xanthine oxidase (XO) (Homo sapiens, UniProt P47989). Kind of assay: XO enzyme inhibition, spectrophotometric (uric acid formation at 295 nm). It counts as biochemical. How it is done: as §1
(§2) The enzyme inhibition assays conducted in this study included elastase, collagenase, hyaluronidase, XO, and prolyl POP inhibition and were performed using an ELISA microplate reader (Spectramax i3x microplate reader with Softmax® Pro Software for Windows 10; Molecular Devices, San Jose, USA).

The subject of another assay is XO. To be noted: cited from earlier work.
A further assay deals with POP enzyme. Particulars: cited from earlier work.
On the set-up of assay [2]: method as in earlier work. Particulars: cited from earlier work.
The test system of a further assay is LOX. Set-up: method as in PMID 27316769. Particulars: dose-dependent; read-out: LOX inhibition IC50; cited from earlier work.
The target in a further assay is hyaluronidase. Briefly: Hyaluronidase enzyme inhibition assay. It counts as biochemical. How it is done:
as §1, §2

A word on the inhibition: it is the relative decrease from the control value, in per cent. One may read the IC50 as the concentration that gives 50% inhibition.

Read-outs that look alike come from different tables or passages of the source.

xanthine oxidase (XO), sequence (P47989 whole entry, species assumed): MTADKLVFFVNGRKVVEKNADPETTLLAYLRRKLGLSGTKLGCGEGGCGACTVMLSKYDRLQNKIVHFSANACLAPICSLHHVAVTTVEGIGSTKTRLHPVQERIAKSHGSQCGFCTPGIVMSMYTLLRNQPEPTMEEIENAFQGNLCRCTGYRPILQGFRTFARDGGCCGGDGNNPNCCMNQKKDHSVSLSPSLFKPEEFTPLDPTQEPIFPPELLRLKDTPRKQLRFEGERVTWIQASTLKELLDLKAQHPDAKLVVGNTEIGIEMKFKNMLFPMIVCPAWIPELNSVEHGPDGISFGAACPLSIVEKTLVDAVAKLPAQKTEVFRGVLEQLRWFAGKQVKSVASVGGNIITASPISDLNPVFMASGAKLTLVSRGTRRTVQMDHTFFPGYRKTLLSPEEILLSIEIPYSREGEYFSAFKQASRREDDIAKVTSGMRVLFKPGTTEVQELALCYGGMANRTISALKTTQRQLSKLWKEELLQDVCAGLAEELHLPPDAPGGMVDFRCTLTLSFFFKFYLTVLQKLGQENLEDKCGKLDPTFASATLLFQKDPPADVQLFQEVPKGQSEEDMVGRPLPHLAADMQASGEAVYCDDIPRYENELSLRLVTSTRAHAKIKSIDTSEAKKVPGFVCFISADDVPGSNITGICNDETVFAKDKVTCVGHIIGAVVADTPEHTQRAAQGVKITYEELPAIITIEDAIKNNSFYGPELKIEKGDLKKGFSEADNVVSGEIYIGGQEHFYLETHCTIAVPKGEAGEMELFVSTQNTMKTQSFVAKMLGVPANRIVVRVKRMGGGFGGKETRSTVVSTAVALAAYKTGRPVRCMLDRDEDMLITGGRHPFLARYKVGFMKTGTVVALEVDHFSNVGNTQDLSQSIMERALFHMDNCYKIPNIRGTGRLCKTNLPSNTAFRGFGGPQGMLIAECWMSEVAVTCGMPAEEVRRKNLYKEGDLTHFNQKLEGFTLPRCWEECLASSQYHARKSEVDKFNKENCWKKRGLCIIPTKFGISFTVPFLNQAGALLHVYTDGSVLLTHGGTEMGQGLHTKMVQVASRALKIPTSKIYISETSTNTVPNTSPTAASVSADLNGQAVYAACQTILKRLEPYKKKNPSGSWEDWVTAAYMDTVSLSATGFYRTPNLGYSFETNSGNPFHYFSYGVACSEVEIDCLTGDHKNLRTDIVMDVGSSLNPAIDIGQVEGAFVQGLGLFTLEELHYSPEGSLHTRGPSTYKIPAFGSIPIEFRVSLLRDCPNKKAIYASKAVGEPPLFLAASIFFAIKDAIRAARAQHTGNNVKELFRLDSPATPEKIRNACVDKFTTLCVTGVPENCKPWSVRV

For `c1cnc2c(c1)ccc1cccnc12` [1,10-phenanthroline], the “Collagenase inhibition IC50” value on collagenase was determined as 27.95 ± 0.3 µg/mL. The “Collagenase Enzyme Inhibition (% Inhibition ± S.D.), reference” value in the assay with collagenase (References (1 mg/mL)) is 87.39 ± 2.85%.
Turning to `O=C1O[C@H]([C@@H](O)CO)C(O)=C1O` [Vitamin C], in assay [1], the “Nitric oxide radical-scavenging IC50” value was found to be 25.28 ± 2.98 µg/mL. For the same compound, in assay [1] (Vitamin C (1 mg/mL)), the “Nitric Oxide Radical-Scavenging Activity (% Inhibition ± S.D.), reference” value stood at 92.72 ± 0.10%.
For `Oc1ncnc2[nH]ncc12` [allopurinol, reference compound], the inhibition at 25 µg/mL on xanthine oxidase (XO) (read-out: XO Enzyme Inhibition (% Inhibition ± S.D.)) turned out to be 91.6 ± 1.3%. The inhibition at 500 µg/mL at xanthine oxidase (XO) (read-out: XO Enzyme Inhibition (% Inhibition ± S.D.), reference) is 91.6 ± 1.3%. Besides, the 50% inhibitory concentration (IC50) with XO (read-out: XO inhibition IC50) was 4.05 µM.
With `O=c1cc(-c2ccc(O)cc2)oc2cc(O)cc(O)c12` [apigenin], the half-maximal inhibitory concentration (IC50) at xanthine oxidase (XO) was 40.1 µM; with XO (competitive inhibitor, read-out: XO inhibition IC50) it was 3.57 µM.
Take `COc1ccc2cc3[n+](cc2c1OC)CCc1cc2c(cc1-3)OCO2` [berberine]: the IC50 on POP enzyme (read-out: POP inhibition IC50) was 142 ± 21.5 µM.
As for `O=c1cc(-c2ccc(O)c(O)c2)oc2cc(O)cc(O)c12` [luteolin], the concentration for half-maximal inhibition (IC50) against xanthine oxidase (XO) is 49.8 µM; with XO (flavonoids isolated from Blumea balsamifera L., read-out: XO inhibitory activity IC50), 2.38 ± 0.01 µM; with XO (read-out: XO inhibition IC50), 0.96 µM. Also, the “POP inhibition IC50” value on POP enzyme is 0.17 ppm.
In the case of `O=C1C[C@@H](c2ccc(O)cc2)Oc2cc(O)cc(O)c21` [naringenin], the IC50 against xanthine oxidase (XO) is 130 µM; in the assay on XO (read-out: XO inhibition IC50), 4.57 µM. Also, the “inhibitory activity against XO (in words)” value in the assay on XO is given as “moderate inhibitory activity”. The “inhibitory activity against the POP enzyme (in words)” value with POP enzyme is “did not exhibit inhibitory activity”.
In the case of `O=c1c(O)c(-c2ccc(O)c(O)c2)oc2cc(O)cc(O)c12` [quercetin], the “NO radical-scavenging activity IC50” value in assay [2] was 160 ± 10 µg/mL.
With `Oc1ccc2c(c1)OCO2` [sesamol], the IC50 in the assay on LOX is 51.8 µM.
With tannic acid, the “Hyaluronidase inhibition IC50” value at hyaluronidase is 2.31 ± 0.73 µg/mL. Further, the “Hyaluronidase Enzyme Inhibition (% Inhibition ± S.D.), reference” value with hyaluronidase (References (1 mg/mL)) is 92.51 ± 3.53%.
